US6545033B1, “Fused 1-(2,6-dichloro-4-trifluoromethylphenyl)-pyrazoles, the synthesis thereof and the use thereof as pesticides” (3-Dimensional Pharmaceuticals, Inc., priority 1999, dated 2003)

Biological target: T1, Housefly GABA receptors (Musca domestica, UniProt Q75NA5)
T1 sequence (Q75NA5 30-576): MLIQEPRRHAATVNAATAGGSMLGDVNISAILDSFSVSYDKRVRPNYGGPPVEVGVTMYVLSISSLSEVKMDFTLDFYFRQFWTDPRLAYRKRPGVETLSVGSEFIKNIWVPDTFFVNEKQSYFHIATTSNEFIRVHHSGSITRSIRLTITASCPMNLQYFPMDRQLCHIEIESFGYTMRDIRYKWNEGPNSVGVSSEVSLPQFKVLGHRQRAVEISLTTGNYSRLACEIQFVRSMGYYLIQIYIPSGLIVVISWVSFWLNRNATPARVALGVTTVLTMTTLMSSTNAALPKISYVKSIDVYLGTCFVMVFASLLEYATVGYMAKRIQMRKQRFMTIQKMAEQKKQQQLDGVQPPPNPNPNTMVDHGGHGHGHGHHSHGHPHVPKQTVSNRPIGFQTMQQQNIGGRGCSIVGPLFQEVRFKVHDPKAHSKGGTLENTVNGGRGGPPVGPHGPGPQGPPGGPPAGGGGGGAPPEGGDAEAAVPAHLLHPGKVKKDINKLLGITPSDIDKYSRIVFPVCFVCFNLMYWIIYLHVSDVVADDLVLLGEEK
Assay: In vitro assay of binding to housefly GABA receptors (3H-EBOB displacement, housefly neuronal membranes)
Conditions: for Compounds with the most activity (housefly 3H-EBOB binding): housefly neuronal membranes
Procedure, shortened: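 Head neuronal membranes (20/35% sucrose interface) incubated 45 min at 24 °C in 10 mM phosphate, 300 mM NaCl, pH 7.5, with 3H-EBOB (added solution 5.2 nM) and membranes added at 0.5–1.0 mg/mL. Bound label captured on polyethylenimine-treated glass fibre filters and counted by scintillation.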

SMILES | Compounds with the most activity (housefly 3H-EBOB binding) | IC50 (displacement of 5.2 nM 3H-EBOB, housefly head neuronal membranes, about 45 min at about 24° C., read-out: IC50 (nM), Fly Head) [nM]
FC(F)(F)c1cc(Cl)c(-n2cc3c(n2)CSC3)c(Cl)c1 [Compound 3, 2-[2,6-Dichloro-4-(trifluoromethyl)phenyl]-4,6-dihydrothieno-[3,4-c]pyrazole] | most activity | –
FC(F)(F)c1cc(Cl)c(-n2cc3c(n2)CCC3)c(Cl)c1 [Compound 11, 2-[2,6-Dichloro-4-(trifluoromethyl)phenyl]-2,4,5,6-tetrahydrocyclopenta[c]pyrazole] | most activity | 83
FC(F)(F)c1cc(Cl)c(-n2cc3c(n2)CCCCC3)c(Cl)c1 [Compound 15, 2-[2,6-Dichloro-4-(trifluoromethyl)phenyl]-2,4,5,6,7,8-hexahydrocyclohepta[c]pyrazole] | most activity | –
